In patent publication US9018208B2, “Heterocycles as potassium channel modulators” (Icagen Inc., priority 2007, dated 2015):

System: SH-SY5Y M-currents (KCNQ2, KCNQ3 and KCNQ5)
Assay: SH-SY5Y native cell line FLIPR assay (voltage-sensitive dye DiBAC)
Assay type: cell-based, mouse neuroblastoma, rat glioma hybrid cell line
Settings: FLIPR assay, SH-SY5Y native cell line; Table 2; read-out: SH-SY5Y EC50
Summary of the method: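 Response is peak DiBAC fluorescence change, normalised to the maximum from a positive control agent, sampled every 30 s over 25 min. Before compound addition, SH-SY5Y cells differentiated with PGE1 plus isomethylbutylxanthine were dye-loaded for 1 h in EBSS with […] DiBAC.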

First: O=C(Cc1ccc(F)cc1)Nc1nc2cc(Cl)c(Cl)cn2c1-c1ccc(OC(F)(F)F)cc1 [Compound 217, N-(6,7-dichloro-3-(4-(trifluoromethoxy)phenyl)imidazo[1,2-a]pyridin-2-yl)-2-(4-fluorophenyl)acetamide]
Second: O=C(Cc1ccc(F)cc1)Nc1nc2cc(Cl)c(Cl)cn2c1-c1ccc(C(F)(F)F)cc1 [Compound 236, N-(6,7-dichloro-3-(4-(trifluoromethyl)phenyl)imidazo[1,2-a]pyridin-2-yl)-2-(4-fluorophenyl)acetamide]
The EC50 of the first is higher: 500 to 3000 nM for the first, under 500 nM for the second. The second is the more potent here.

First: CC(C)(C#N)CC(=O)Nc1nc2ccc(F)cn2c1-c1ccc(OC(F)(F)F)cc1 [Compound 218, 3-cyano-N-(6-fluoro-3-(4-(trifluoromethoxy)phenyl)imidazo[1,2-a]pyridin-2-yl)-3-methylbutanamide]
Second: O=C(CC(F)(F)F)Nc1nc2ccc(F)cn2c1-c1ccc(OC(F)(F)F)cc1 [Compound 252, 3,3,3-trifluoro-N-(6-fluoro-3-(4-(trifluoromethoxy)phenyl)imidazo[1,2-a]pyridin-2-yl)propanamide]
The EC50 of the first is higher: 500 to 3000 nM for the first, under 500 nM for the second. The second is the more potent here.

First: CC(CC(=O)Nc1nc2cc(Cl)c(Cl)cn2c1-c1ccc(OC(F)(F)F)cc1)C(F)(F)F (stereo not shown) [Compound 219]
Second: CC(C)(C)CC(=O)Nc1nc2cc(Cl)c(Cl)cn2c1-c1ccc(C(F)(F)F)cc1 [Compound 233, N-(6,7-dichloro-3-(4-(trifluoromethyl)phenyl)imidazo[1,2-a]pyridin-2-yl)-3,3-dimethylbutanamide]
The EC50 of the first is higher: 500 to 3000 nM for the first, under 500 nM for the second. The second is the more potent here.

`O=C(CCC1CCCC1)Nc1nc2ccc(F)cn2c1-c1ccc(C(F)(F)F)cc1` [Compound 220, 3-cyclopentyl-N-(6-fluoro-3-(4-(trifluoromethyl)phenyl)imidazo[1,2-a]pyridin-2-yl)propanamide] and `O=C(CC1CCCC1)Nc1nc2ccccn2c1-c1ccc(C(F)(F)F)cc1` [Compound 224, 2-cyclopentyl-N-(3-(4-(trifluoromethyl)phenyl)imidazo[1,2-a]pyridin-2-yl)acetamide] cannot be ordered by EC50: under 500 nM for the first, under 500 nM for the second.

First: CC(C)(C)CC(=O)Nc1nc2ccccn2c1-c1ccc(F)cc1 [Compound 221, N-(3(4-fluorophenyl)imidazo[1,2-a]pyridin-2-yl)-3,3-dimethylbutanamide]
Second: CC(C)(C)CC(=O)Nc1nc2ccccn2c1-c1ccc(C(F)(F)F)cc1 [Compound 223, 3,3-dimethyl-N-(3-(4-(trifluoromethyl)phenyl)imidazo[1,2-a]pyridin-2-yl)butanamide]
The EC50 of the first is higher: 500 to 3000 nM for the first, under 500 nM for the second.

Compared with `O=C(CC1CCCC1)Nc1nc2ccccn2c1-c1ccc(F)cc1` [Compound 222, 2-cyclopentyl-N-(3-(4-fluorophenyl)imidazo[1,2-a]pyridin-2-yl)acetamide], `O=C(CC1CCCC1)Nc1nc2ccccn2c1-c1ccc(OC(F)(F)F)cc1` [Compound 226, 2-cyclopentyl-N-(3-(4-(trifluoromethoxy)phenyl)imidazo[1,2-a]pyridin-2-yl)acetamide] is lower in EC50: 500 to 3000 nM for the first, under 500 nM for the second.

`CC(C)(C)CC(=O)Nc1nc2ccc(F)cn2c1-c1cc(F)cc(F)c1` [Compound 227, N-(3-(3,5-difluorophenyl)-6-fluoroimidazo[1,2-a]pyridin-2-yl)-3,3-dimethylbutanamide] and `Cc1cc(-c2c(NC(=O)CC(C)(C)C)nc3ccc(F)cn23)ccc1F` [Compound 255, N-(6-fluoro-3-(4-fluoro-3-methylphenyl)imidazo[1,2-a]pyridin-2-yl)-3,3-dimethylbutanamide] cannot be ordered by EC50: under 500 nM for the first, under 500 nM for the second.

`O=C(Cc1ccccc1)Nc1nc2ccc(F)cn2c1-c1cc(F)cc(F)c1` [Compound 228, N-(3-(3,5-difluorophenyl)-6-fluoroimidazo[1,2-a]pyridin-2-yl)-2-phenylacetamide] and `O=C(Cc1ccc(F)cc1)Nc1nc2ccc(F)cn2c1-c1cc(F)cc(F)c1` [Compound 229, N-(3-(3,5-difluorophenyl)-6-fluoroimidazo[1,2-a]pyridin-2-yl)-2-(4-fluorophenyl)acetamide] cannot be ordered by EC50: under 500 nM for the first, under 500 nM for the second.

First: CC(CC(=O)Nc1nc2ccc(F)cn2c1-c1cc(F)cc(F)c1)C(F)(F)F (stereo not shown) [Compound 230, N-(3-(3,5-difluorophenyl)-6-fluoroimidazo[1,2-a]pyridin-2-yl)-4,4,4-trifluoro-3-methylbutanamide]
Second: O=C(Cc1cc(F)cc(F)c1)Nc1nc2ccc(F)cn2c1-c1ccc(OC(F)(F)F)cc1 [Compound 242, 2-(3,5-difluorophenyl)-N-(6-fluoro-3-(4-(trifluoromethoxy)phenyl)imidazo[1,2-a]pyridin-2-yl)acetamide]
The EC50 of the first is higher: 500 to 3000 nM for the first, under 500 nM for the second.

`O=C(COc1ccccc1)Nc1nc2ccc(F)cn2c1-c1ccc(OC(F)(F)F)cc1` [Compound 231, N-(6-fluoro-3-(4-(trifluoromethoxy)phenyl)imidazo[1,2-a]pyridin-2-yl)-2-phenoxyacetamide] and `O=C(COCc1ccccc1)Nc1nc2ccc(F)cn2c1-c1ccc(OC(F)(F)F)cc1` [Compound 237, 2-(benzyloxy)-N-(6-fluoro-3-(4-(trifluoromethoxy)phenyl)imidazo[1,2-a]pyridin-2-yl)acetamide] fall in the same range of EC50: 3000 to 10000 nM for the first, 3000 to 10000 nM for the second.

`CC(Oc1ccccc1)C(=O)Nc1nc2ccc(F)cn2c1-c1ccc(OC(F)(F)F)cc1` (stereo not shown) [Compound 232, N-(6-fluoro-3-(4-(trifluoromethoxy)phenyl)imidazo[1,2-a]pyridin-2-yl)-2-phenoxypropanamide] and `CO[C@@H](C(=O)Nc1nc2ccc(F)cn2c1-c1ccc(OC(F)(F)F)cc1)c1ccccc1` [Compound 253, (R)—N-(6-fluoro-3-(4-(trifluoromethoxy)phenyl)imidazo[1,2-a]pyridin-2-yl)-2-methoxy-2-phenyl acetamide] fall in the same range of EC50: 3000 to 10000 nM for the first, 3000 to 10000 nM for the second.

`CC(C(=O)Nc1nc2ccc(F)cn2c1-c1ccc(C(F)(F)F)cc1)C(C)(C)C` (stereo not shown) [Compound 234, N-(6-fluoro-3-(4-(trifluoromethyl)phenyl)imidazo[1,2-a]pyridin-2-yl)-2,3,3-trimethylbutanamide] and `CC(C(=O)Nc1nc2ccc(F)cn2c1-c1ccc(OC(F)(F)F)cc1)C(C)(C)C` (stereo not shown) [Compound 235, N-(6-fluoro-3-(4-(trifluoromethoxy)phenyl)imidazo[1,2-a]pyridin-2-yl)-2,3,3-trimethylbutanamide] cannot be ordered by EC50: under 500 nM for the first, under 500 nM for the second.

`O=C(Cc1ccc(Cl)cc1)Nc1nc2ccc(F)cn2c1-c1ccc(OC(F)(F)F)cc1` [Compound 238, 2-(4-chlorophenyl)-N-(6-fluoro-3-(4-(trifluoromethoxy)phenyl)imidazo[1,2-a]pyridin-2-yl)acetamide] and `O=C(Cc1ccc(F)c(F)c1)Nc1nc2ccc(F)cn2c1-c1ccc(OC(F)(F)F)cc1` [Compound 241, 2-(3,4-difluorophenyl)-N-(6-fluoro-3-(4-(trifluoromethoxy)phenyl)imidazo[1,2-a]pyridin-2-yl)acetamide] cannot be ordered by EC50: under 500 nM for the first, under 500 nM for the second.

First: O=C(Cc1cccc(F)c1)Nc1nc2ccc(F)cn2c1-c1ccc(OC(F)(F)F)cc1 [Compound 240, N-(6-fluoro-3-(4-(trifluoromethoxy)phenyl)imidazo[1,2-a]pyridin-2-yl)-2-(3-fluorophenyl)acetamide]
Second: O=C(CCOc1ccc(F)cc1)Nc1nc2ccc(F)cn2c1-c1ccc(OC(F)(F)F)cc1 [Compound 250, N-(6-fluoro-3-(4-(trifluoromethoxy)phenyl)imidazo[1,2-a]pyridin-2-yl)-3-(4-fluorophenoxy)propanamide]
The EC50 of the first is lower: under 500 nM for the first, 500 to 3000 nM for the second.

`O=C(Nc1nc2ccc(F)cn2c1-c1ccc(OC(F)(F)F)cc1)[C@H]1CCCO1` [Compound 243, (R)—N-(6-fluoro-3-(4-(trifluoromethoxy)phenyl)imidazo[1,2-a]pyridin-2-yl)tetrahydrofuran-2-carboxamide] and `O=C(Nc1nc2ccc(F)cn2c1-c1ccc(OC(F)(F)F)cc1)[C@@H]1CCCO1` [Compound 244, (S)—N-(6-fluoro-3-(4-(trifluoromethoxy)phenyl)imidazo[1,2-a]pyridin-2-yl)tetrahydrofuran-2-carboxamide] fall in the same range of EC50: 3000 to 10000 nM for the first, 3000 to 10000 nM for the second.

`COc1ccn2c(-c3ccc(C(F)(F)F)cc3)c(NC(=O)CC(C)(C)C)nc2c1` [Compound 245, N-(7-methoxy-3-(4-(trifluoromethyl)phenyl)imidazo[1,2-a]pyridin-2-yl)-3,3-dimethylbutanamide] and `COc1ccn2c(-c3ccc(C(F)(F)F)cc3)c(NC(=O)Cc3ccccc3)nc2c1` [Compound 246, N-(7-methoxy-3-(4-(trifluoromethyl)phenyl)imidazo[1,2-a]pyridin-2-yl)-2-phenylacetamide] fall in the same range of EC50: 500 to 3000 nM for the first, 500 to 3000 nM for the second.

`O=C(COc1ccc(Cl)cc1Cl)Nc1nc2ccc(F)cn2c1-c1ccc(OC(F)(F)F)cc1` [Compound 247, 2-(2,4-dichlorophenoxy)-N-(6-fluoro-3-(4-(trifluoromethoxy)phenyl)imidazo[1,2-a]pyridin-2-yl)acetamide] and `CO[C@H](C(=O)Nc1nc2ccc(F)cn2c1-c1ccc(OC(F)(F)F)cc1)c1ccccc1` [Compound 254, (S)—N-(6-fluoro-3-(4-(trifluoromethoxy)phenyl)imidazo[1,2-a]pyridin-2-yl)-2-methoxy-2-phenyl acetamide] fall in the same range of EC50: 3000 to 10000 nM for the first, 3000 to 10000 nM for the second.

First: O=C(Nc1nc2ccc(F)cn2c1-c1ccc(OC(F)(F)F)cc1)C1CCOC1 (stereo not shown) [Compound 248, N-(6-fluoro-3-(4-(trifluoromethoxy)phenyl)imidazo[1,2-a]pyridin-2-yl)tetrahydrofuran-3-carboxamide]
Second: O=C(CC1CCOCC1)Nc1nc2ccc(F)cn2c1-c1ccc(OC(F)(F)F)cc1 [Compound 251, N-(6-fluoro-3-(4-(trifluoromethoxy)phenyl)imidazo[1,2-a]pyridin-2-yl)-2-(tetrahydro-2H-pyran-4-yl)acetamide]
The EC50 of the first is higher: 3000 to 10000 nM for the first, 500 to 3000 nM for the second.

In the case of `CC(C)C(C)C(=O)Nc1nc2ccc(F)cn2c1-c1ccc(OC(F)(F)F)cc1` (stereo not shown) [Compound 249, N-(6-fluoro-3-(4-(trifluoromethoxy)phenyl)imidazo[1,2-a]pyridin-2-yl)-2,3-dimethylbutanamide], the EC50 is reported as under 500 nM.
